Assay: xn = mol fraction of the nth substance listed
Settings: 101 kPa, Liquid, Vibrating tube method

COC(=O)CCCCC(=O)OC [dimethyl 1,6-hexanedioate] + CCCCO
mass density [kg/m3]
Settings	x1 = 0.0999	x1 = 0.2004	x1 = 0.2999	x1 = 0.4003	x1 = 0.4999	x1 = 0.6007	x1 = 0.6996	x1 = 0.7994	x1 = 0.8991	x1 = 1
288.15 K	854.546	890.617	921.957	949.859	974.548	996.907	1016.65	1034.84	1051.42	1066.79
293.15 K	850.5	886.373	917.562	945.34	969.9	992.211	1011.89	1030.03	1046.58	1061.93
298.15 K	846.433	882.112	913.148	940.805	965.3	987.507	1007.13	1025.22	1041.74	1057.06
303.15 K	842.341	877.825	908.714	936.253	960.66	982.791	1002.36	1020.41	1036.89	1052.18
308.15 K	838.219	873.513	904.259	931.684	955.998	978.06	997.573	1015.59	1032.04	1047.31
313.15 K	834.066	869.172	899.775	927.091	951.32	973.316	992.781	1010.76	1027.18	1042.43
318.15 K	829.874	864.799	895.264	922.473	946.622	968.555	987.974	1005.91	1022.31	1037.54
323.15 K	825.64	860.391	890.725	917.832	941.902	963.778	983.155	1001.06	1017.44	1032.64
